US8822519B2, “Compound with agitation effect on peroxisome proliferator-activated receptor process for its preparation and use thereof” (Zhejiang Hisun Pharmaceutical Co., Ltd., priority 2008, dated 2014)

Columns and labels:
PPARδ = target: T1, PPARδ (Homo sapiens, UniProt Q03181); experiment: In vitro screening of nuclear receptor agonist: luciferase reporter gene assay in HepG2 cells; assay type: cell-based; details: RXR/PPARδ luciferase reporter gene, 24 h treatment
T1 construct: expressed in transfected cells; host or cells: HepG2 (human hepatocarcinoma, ATCC)
T1 sequence (Q03181 1-441): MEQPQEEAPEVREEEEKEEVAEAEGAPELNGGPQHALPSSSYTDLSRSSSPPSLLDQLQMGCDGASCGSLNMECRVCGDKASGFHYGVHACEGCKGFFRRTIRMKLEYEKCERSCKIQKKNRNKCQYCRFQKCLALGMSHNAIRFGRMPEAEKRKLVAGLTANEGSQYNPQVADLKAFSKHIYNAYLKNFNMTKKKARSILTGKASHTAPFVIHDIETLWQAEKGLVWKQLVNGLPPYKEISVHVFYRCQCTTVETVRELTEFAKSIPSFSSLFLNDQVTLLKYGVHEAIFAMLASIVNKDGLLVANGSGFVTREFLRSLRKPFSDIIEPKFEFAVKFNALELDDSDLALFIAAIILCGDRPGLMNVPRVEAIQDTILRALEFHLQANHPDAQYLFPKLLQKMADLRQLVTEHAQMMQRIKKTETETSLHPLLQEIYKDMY
T1 sequence (P19793 1-462 partner): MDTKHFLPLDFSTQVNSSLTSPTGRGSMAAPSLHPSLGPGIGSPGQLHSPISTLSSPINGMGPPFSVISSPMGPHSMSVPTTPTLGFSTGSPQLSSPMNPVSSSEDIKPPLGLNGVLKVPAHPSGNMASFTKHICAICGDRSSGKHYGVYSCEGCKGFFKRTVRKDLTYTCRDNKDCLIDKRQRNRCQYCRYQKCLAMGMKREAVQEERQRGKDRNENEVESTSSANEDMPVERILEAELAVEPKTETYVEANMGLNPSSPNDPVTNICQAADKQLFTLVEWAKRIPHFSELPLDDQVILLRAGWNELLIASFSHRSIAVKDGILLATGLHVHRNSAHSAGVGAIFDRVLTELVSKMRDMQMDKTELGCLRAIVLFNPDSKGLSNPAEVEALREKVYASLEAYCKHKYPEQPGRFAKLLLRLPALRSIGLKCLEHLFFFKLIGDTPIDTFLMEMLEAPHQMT
Source text: Using a reporter gene protocol, the screening model for screening a nuclear receptor agonist in a living cell is designed on a basis of the principal that an activated nuclear receptor can activate transcription of its downstream gene. A reporter gene plasmid is constructed, in which the DNA binding sequence for the nuclear receptor (NRE) is inserted upstream of the luciferase gene, so that the expression of the luciferase gene is placed under the control of the nuclear receptor. Then, the reporter gene plasmid and the nuclear receptor are simultaneously transferred into a cell, and the nuclear receptor is activated when the nuclear receptor agonist is present in the cell culture medium. Then the activated receptor is able to induce the expression of the luciferase gene, while the amount of the luciferase can be determined through its luminous substrate. In this way, the intensity of activation by the compound on the nuclear receptor could be known by observing the luminescence intensity.
The specific operation is described as follows:
The experiment reagents: the compounds to be tested (20 mM, in DMSO, stored at −80° C.).
The hepatocarcinoma cell HepG2 (from ATCC, American Type Culture Collection) was cultured in DMEM medium supplemented with 10% heat-inactivated fetal bovine serum (FBS, Invitogen, Grand Island, N.Y., USA) in a T-75 culture bottle (Greiner, Germany) in a incubator at 37° C., the relative humidity of 100%, and 5% CO2. When the cell culture in the culture bottle reached 80-90% confluency, it was digested with 0.25% Trypsin (with EDTA) for 3 min and inoculated into a 96-well cell culture plate at an inoculating density of 2000 cells/100 μl/well.
In the next day, when the cells in the 96-well culture plate grew up to 50-80% confluency, cell transfection was performed. The cell co-transfection system comprised the FuGene6 transfection agent (Roche Molecular Biochemicals, Indianapolis, Ind., U.S.A.) and 60 ng DNA (long of hRXR, 10 ng of pCMV βGal, 10 ng of the nuclear receptor expression plasmid RXR/PPARδ, 30 ng of GFP fluorescence reporter gene plasmid, respectively).
The cell culture medium was discarded immediately at 24 hours post-transfection and replaced by 200 μl of a fresh DMEM medium containing the medicament to be tested (with 10% FBS treated by activated carbon).
24 h after treatment with the medicament, the cells were lysed with a lysis solution (Cell Culture Lysis buffer, Promega) and centrifuged, and the supernatant was collected. The supernatant was treated with a fluorescence detection kit (Promega) and counted by a fluorescence meter (Ascent Fluoroskan FL reader, Thermo Labsystems, Finland), and the relative intensity of the luciferase was determined. For assaying the β-galactosidase activity used in the experiment as the inner reference (the inner reference calibrating for the transfection efficiency), 50 μl of the supernatant was transferred into a fresh microplate and treated with the Promega kit and read at a wavelength of 405 nm from a microplate reader (Bio-tech Instruments Inc., Winooski, Vt., USA) (Sauerberg, P.; Olsen, G. S.; Jeppesen, L.; Mogensen, J. P. et al., J. Med. Chem., 2007, 50, 1495-1503).
The median effective concentration (EC50) of a sample is a concentration at which the sample has 50% pharmacological effect. This value is one of the important parameters for evaluating pharmacological effects of a compound. In the present screening process, the EC50 of a sample was calculated according to the activation of the receptor by the sample at six different concentrations.

[1] = tested on: high fat fodder obese C57BL/6J mice; experiment: High fat fodder obese mice: levels of blood lipid and blood glucose; assay type: in vivo; design: HDL / GLU / TC / TG: unit not given here; details: for GLU / HDL / TG / TC: mean ± s, n 5
Source text: 3 week-old male C57BL/6J mice were chosen as experiment animals, 15 of which were randomly selected to feed with a standard fodder, and the remains were allowed to feed with a high fat fodder, with each of the mice being marked by ear-cutting. The body weights and fodder intake of the mice were weighed every week. […] […], the effects of the medicaments on the levels of blood lipid and blood glucose, body weight, and fodder intake in the animals were observed, while a glucose tolerance test was performed to investigate the effects of the medicaments on the glucose tolerance in the animals.

[2] = tested on: high fat fodder obese C57BL/6J mice; experiment: Oral glucose tolerance test in obese mice; assay type: in vivo; details: FIG. 2, in words
Procedure: The abscissa represents blood-sampling time points, 0 min, 30 min, 60 min, 120 min after orally given with glucose; the ordinate represents the corresponding blood glucose level (mmol/L).
(§1) 3 week-old male C57BL/6J mice were chosen as experiment animals, 15 of which were randomly selected to feed with a standard fodder, and the remains were allowed to feed with a high fat fodder, with each of the mice being marked by ear-cutting. The body weights and fodder intake of the mice were weighed every week. […] After the administration of the inventive compounds for four weeks, the effects of the medicaments on the levels of blood lipid and blood glucose, body weight, and fodder intake in the animals were observed, while a glucose tolerance test was performed to investigate the effects of the medicaments on the glucose tolerance in the animals.

[3] = tested on: high fat fodder obese C57BL/6J mice; experiment: High fat fodder obese mice: body weight and food intake; assay type: in vivo
Source text: as §1

[4] = 2 weeks administration, 3.3 mg/kg
[5] = 2 weeks administration, 10 mg/kg
[6] = 4 weeks administration, 3.3 mg/kg
[7] = 4 weeks administration, 10 mg/kg

Cc1cc(SCC(=O)O)c(C)cc1OC(c1ccccc1)c1nn(-c2ccc(C(F)(F)F)cc2)c(=O)n1C (stereo not drawn) [Compound A-11, 2-(2,5-dimethyl-4-(1-(3-(4-methyl-5-oxo-1-(4-trifluoromethyl-phenyl)-4,5-dihydrogen-1H-1,2,4-triazolyl))-benzyloxy)-phenylthio)-acetic acid]
EC50 (PPARδ): < 1 nM
GLU [1, 4]: 8.85 ± 2.13
HDL [1, 4]: 3.25 ± 1.29
TG [1, 4]: 0.21 ± 0.08
GLU [1, 5]: 6.51 ± 1.61
HDL [1, 5]: 2.39 ± 1.36
TC [1, 5]: 4.51 ± 0.37
TG [1, 5]: 0.16 ± 0.06
GLU [1, 6]: 7.61 ± 0.5
HDL [1, 6]: 3.83 ± 0.1
TC [1, 6]: 5.84 ± 0.21
TG [1, 6]: 0.12 ± 0.05
GLU [1, 7]: 6.93 ± 0.3
HDL [1, 7]: 2.84 ± 1.09
TC [1, 7]: 5.28 ± 0.48
TG [1, 7]: 0.15 ± 0.05
levels of TG and GLU in the sera from the model animals ([1]; in words): significantly decrease
glucose tolerance in the obese animals [2]: significantly improve the glucose tolerance
Food intake ([3]; column 1, 3.3 mg/kg): 6.0 g
Food intake ([3]; column 1, 10 mg/kg): 7.2 g
Food intake ([3]; column 2, 3.3 mg/kg): 5.0 g
Food intake ([3]; column 2, 10 mg/kg): 5.2 g
Food intake ([3]; column 3, 3.3 mg/kg): 5.8 g
Food intake ([3]; column 3, 10 mg/kg): 6.0 g
Food intake ([3]; column 4, 3.3 mg/kg): 6.2 g
Food intake ([3]; column 4, 10 mg/kg): 6.4 g
Food intake ([3]; column 5, 3.3 mg/kg): 6.9 g
Food intake ([3]; column 5, 10 mg/kg): 6.9 g
effect on the food intake of the animals ([3]; in words): no significant effect
body weight of the animals ([3]; in words, Table 4 and FIG. 1): significantly decrease
